Like-named read-outs stand apart in the source and are kept apart here.
Tests used:
[1] = asciminib 40 mg b.i.d. vs bosutinib 500 mg q.d.; cited from earlier work
[2] = cited from earlier work
[3] = Population pharmacokinetics; parameters: species or system human
[4] = TEAEs leading to dose reduction/interruption, time-dependent Cox regression; assay type: in vivo, human; settings: 152 of 351 patients; pooled dose-finding and ASCEMBL
[5] = test system: BCR::ABL1^IS in patients with CML-CP treated with two or more prior TKIs; settings: asciminib 40 mg b.i.d. vs bosutinib 500 mg q.d.; cited from earlier work
[6] = Exposure-response safety; assay type: in vivo, human; settings: for predicted probability of AST increase grade ≥ 2 event within a cycle: ASCEMBL study
[7] = cited from earlier work; remark: listed apart in the source
[8] = Concentration-QTcF analysis; assay type: in vivo, human
[9] = test system: BCR::ABL1^IS levels in patients with CML-CP without the T315I mutation; assay: Exposure-response efficacy; settings: Cmin model

| Compound | AEs leading to treatment discontinuation [1] [%] | grade ≥ 3 adverse events [1] [%] | increase in Cmax of asciminib when taken in combination with imatinib [2] [fold] | Cmin lower for 80 mg q.d. compared with 40 mg b.i.d. [3] | increase in Cmax with 80 mg q.d. compared with 40 mg b.i.d. ([3]; based on PopPK) [%] | patients with TEAEs leading to dose reduction or dose interruption [4] [%] | proportion of patients achieving MMR (BCR::ABL1^IS ≤ 0.1%) at 96 weeks [5] [%] | predicted probability of AST increase grade ≥ 2 event within a cycle ([6]; 5-fold increase in geometric mean Cmax of 40 mg b.i.d.) [%] | predicted probability of AST increase grade ≥ 2 event within a cycle ([6]; geometric mean Cmax of 40 mg b.i.d.) [%] | relationship between asciminib exposure and the majority of the laboratory events analyzed ([6]; repeated measures logistic regression) | decrease in exposure compared with the fasted state ([7]; high-fat meal) | decrease in exposure compared with the fasted state ([7]; low-fat meal) | estimated mean QTcF change from baseline ([8]; at Cmax of 40 mg b.i.d.) | estimated mean QTcF change from baseline ([8]; at Cmax of 80 mg q.d.) | estimated mean QTcF change from baseline ([8]; at Cmax of 200 mg b.i.d.) | estimated mean QTcF change from baseline ([8]; at the HCRE (highest clinically relevant exposure)) | decrease in drug effect with a Cmin lower by 30% [9] [%] | Effmag (population mean, RSE) ([9]; patients without T315I) |
| --- | --- | --- | --- | --- | --- | --- | --- | --- | --- | --- | --- | --- | --- | --- | --- | --- | --- | --- |
| O=C(Nc1ccc(OC(F)(F)Cl)cc1)c1cnc(N2CC[C@@H](O)C2)c(-c2ccn[nH]2)c1 [asciminib] | 7.7 | 56.4 | 1.59 | about 30% | 60 | 43.3 | 37.6 | 0.4 | 0.1 | no statistically significant relationship | approximately 65% | approximately 30% | 3.35 (90% CI 2.28–4.43) ms | 3.64 (90% CI 2.60–4.68) ms | 5.37 (90% CI 3.97–6.77) ms | 6.77 (90% CI 4.67–8.87) ms | < 2 | 42.1 (3.4%) |
| COc1cc(Nc2c(C#N)cnc3cc(OCCCN4CCN(C)CC4)c(OC)cc23)c(Cl)cc1Cl [bosutinib] | 26.3 | 68.4 | – | – | – | – | 15.8 | – | – | – | – | – | – | – | – | – | – | – |
